Data as given in ChEMBL document CHEMBL1139441, “Design, synthesis, molecular modeling studies, and calpain inhibitory activity of novel alpha-ketoamides incorporating polar residues at the P1'-position” (J Med Chem, 2004).

The compounds below were run against T1, Calpain-1 catalytic subunit (Sus scrofa, UniProt P35750) (assay: Binding affinity against porcine erythrocyte calpain I was determined).
T1 sequence (P35750 whole entry): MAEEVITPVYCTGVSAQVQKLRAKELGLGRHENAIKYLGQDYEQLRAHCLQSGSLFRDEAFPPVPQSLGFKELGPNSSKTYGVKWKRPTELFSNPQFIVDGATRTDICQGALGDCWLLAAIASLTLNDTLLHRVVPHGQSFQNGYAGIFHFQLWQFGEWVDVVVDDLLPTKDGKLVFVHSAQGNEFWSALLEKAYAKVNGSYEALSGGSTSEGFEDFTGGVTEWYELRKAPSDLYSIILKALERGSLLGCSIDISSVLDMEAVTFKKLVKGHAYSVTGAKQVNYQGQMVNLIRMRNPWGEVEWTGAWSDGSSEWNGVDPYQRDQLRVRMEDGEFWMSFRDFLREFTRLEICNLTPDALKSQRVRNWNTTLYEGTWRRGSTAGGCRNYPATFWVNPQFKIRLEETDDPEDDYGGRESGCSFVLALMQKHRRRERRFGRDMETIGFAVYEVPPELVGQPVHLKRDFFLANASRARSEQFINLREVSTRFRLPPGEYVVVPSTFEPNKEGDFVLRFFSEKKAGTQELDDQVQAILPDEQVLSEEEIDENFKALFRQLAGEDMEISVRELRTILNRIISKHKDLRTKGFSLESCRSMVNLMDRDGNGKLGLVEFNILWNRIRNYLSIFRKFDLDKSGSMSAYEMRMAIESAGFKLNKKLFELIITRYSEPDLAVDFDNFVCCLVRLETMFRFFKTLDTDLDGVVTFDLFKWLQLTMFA
A Ki greater than 430 µM was found for `CC(C)CC(NC(=O)OCc1ccccc1)C(=O)N[C@@H](Cc1ccccc1)C(=O)C(=O)N[C@H](Cc1ccccc1)C(=O)O` (stereo partly specified) in this work. A Ki of 0.68 µM was found for `COC(=O)[C@H](Cc1ccccc1)NC(=O)C(=O)[C@H](Cc1ccccc1)NC(=O)C(CC(C)C)NC(=O)OCc1ccccc1` (stereo partly specified) in this work. A Ki of 0.0047 µM was found for `CC(C)CC(NC(=O)OCc1ccccc1)C(=O)N[C@@H](Cc1ccccc1)C(=O)C(=O)NNCc1ccccc1` (stereo partly specified) in this work. A Ki of 0.94 µM was found for `COC(=O)[C@@H](Cc1ccccc1)NC(=O)C(=O)[C@H](Cc1ccccc1)NC(=O)C(CC(C)C)NC(=O)OCc1ccccc1` (stereo partly specified) in this work. A Ki of 0.054 µM was found for `CC(C)CC(NC(=O)OCc1ccccc1)C(=O)N[C@@H](Cc1ccccc1)C(=O)C(=O)NCCc1ccccc1` (stereo partly specified) in this work. A Ki of 0.83 µM was found for `CC(C)CC(NC(=O)OCc1ccccc1)C(=O)N[C@@H](Cc1ccccc1)C(=O)C(=O)N[C@@H](Cc1ccccc1)C(=O)O` (stereo partly specified) in this work.
